Here are results for 9 molecules from US10294234B2, “HIV inhibitor compounds” (priority 2017, dated 2019).

A word on the EC50: it is the midpoint of the concentration-response curve.

Each structure is given as a SMILES string.

The subject of this test is HIV-1 (IIIB) in MT-4 cells. Briefly: MT-4 HIV assay. The settings on record: Human immunodeficiency virus 1, MT4, 120 h; HIV-1 (IIIB), MT-4 cells, 5 days, Cell Titer Glo; read-out: EC50. It is filed as cell-based. A digest of the protocol: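 Antiviral activity was read by Cell Titer Glo after a 5-day, 37 °C culture of MT-4 cells pre-infected with a 1:250 dilution of HIV-1 (IIIB). Compounds were tested as threefold dilution series in complete RPMI. Controls were no drug, mock infection and 5 uM AZT.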
On the technique in general: Cellular ATP, detected with luciferase, serves as a proxy for viable cell number.
In the case of `COC(=O)N[C@H](C(=O)N[C@@H](Cc1ccc(C#Cc2ccc(N3CC4CCC(C3)N4C(C)C)nc2)cc1)[C@@H](O)CN(Cc1c(F)cc(-c2cnn(C(F)F)c2)cc1F)NC(=O)[C@@H](NC(=O)OC)C(C)(C)C(F)(F)F)C(C)(C)C(F)(F)F` [Example 166, Methyl ((5S,8S,9S,14S)-11-(4-(1-(difluoromethyl)-1H-pyrazol-4-yl)-2,6-difluorobenzyl)-16,16,16-trifluoro-9-hydroxy-8-(4-((6-(8-isopropyl-3,8-diazabicyclo[3.2.1]octan-3-yl)pyridin-3-yl)ethynyl)benzyl)-15,15-dimethyl-3,6,13-trioxo-5-(1,1,1-trifluoro-2-methylpropan-2-yl)-2-oxa-4,7,11,12-tetraazahexadecan-14-yl)carbamate], the EC50 amounted to 7.06 nM.
Next, `CC(C)([C@H](NC(=O)OC1COC1)C(=O)N[C@@H](Cc1ccc(C#Cc2ccc(N3CC4CCC(C3)N4C3COC3)nc2)cc1)[C@@H](O)CN(Cc1c(F)cc(-c2ccn(C(F)F)n2)cc1F)NC(=O)[C@@H](NC(=O)OC1COC1)C(C)(C)C(F)(F)F)C(F)(F)F` [Example 169, oxetan-3-yl ((2S)-1-(2-(4-(1-(difluoromethyl)-1H-pyrazol-3-yl)-2,6-difluorobenzyl)-2-((2S,3S)-2-hydroxy-4-(4-((6-(8-(oxetan-3-yl)-3,8-diazabicyclo[3.2.1]octan-3-yl)pyridin-3-yl)ethynyl)phenyl)-3-((S)-4,4,4-trifluoro-33-dimethyl-2-(((oxetan-3-yloxy)carbonyl)amino)butanamido)butyl)hydrazinyl)-4,4,4-trifluoro-3,3-dimethyl-1-oxobutan-2-yl)carbamate]: 6.76 nM; `COC(=O)N[C@H](C(=O)N[C@@H](Cc1ccc(C#Cc2cnc(N3CC4CCC(C3)N4)nc2)cc1)[C@@H](O)CN(Cc1c(F)cc(-c2ccn(C(F)F)n2)cc1F)NC(=O)[C@@H](NC(=O)OC)C(C)(C)C(F)(F)F)C(C)(C)C(F)(F)F` [Example 172, Methyl ((5S,8S,9S,14S)-8-(4-((2-(3,8-diazabicyclo[3.2.1]octan-3-yl)pyrimidin-5-yl)ethynyl)benzyl)-11-(4-(1-(difluoromethyl)-1H-pyrazol-3-yl)-2,6-difluorobenzyl)-16,16,16-trifluoro-9-hydroxy-15,15-dimethyl-3,6,13-trioxo-5-(1,1,1-trifluoro-2-methylpropan-2-yl)-2-oxa-4,7,11,12-tetraazahexadecan-14-yl)carbamate]: 5.86 nM; `COC(=O)N[C@H](C(=O)N[C@@H](Cc1ccc(C#Cc2ccc(N3CC4CCC(C3)N4C3COC3)cc2)cc1)[C@@H](O)CN(Cc1c(F)cc(-c2ccccn2)cc1F)NC(=O)[C@@H](NC(=O)OC)C(C)(C)C(F)(F)F)C(C)(C)C(F)(F)F` [Example 177, Methyl ((5S,8S,9S,14S)-11-(2,6-difluoro-4-(pyridin-2-yl)benzyl)-16,16,16-trifluoro-9-hydroxy-15,15-dimethyl-8-(4-((4-(8-(oxetan-3-yl)-3,8-diazabicyclo [3.2.1]octan-3-yl)phenyl)ethynyl)benzyl)-3,6,13-trioxo-5-(1,1,1-trifluoro-2-methylpropan-2-yl)-2-oxa-4,7,11,12-tetraazahexadecan-14-yl)carbamate]: 8.12 nM.
Turning to `COC(=O)N[C@H](C(=O)N[C@@H](Cc1ccc(C#Cc2ccc(N3CC4CCC(C3)N4C3COC3)cc2)cc1)[C@@H](O)CN(Cc1c(F)cc(-c2ccn(C(F)F)n2)cc1F)NC(=O)[C@@H](NC(=O)OC)C(C)(C)C(F)(F)F)C(C)(C)C(F)(F)F` [Example 178, Methyl ((5S,8S,9S,14S)-11-(4-(1-(difluoromethyl)-1H-pyrazol-3-yl)-2,6-difluorobenzyl)-16,16,16-trifluoro-9-hydroxy-15,15-dimethyl-8-(4-((4-(8-(oxetan-3-yl)-3,8-diazabicyclo[3.2.1]octan-3-yl)phenyl)ethynyl)benzyl)-3,6,13-trioxo-5-(1,1,1-trifluoro-2-methylpropan-2-yl)-2-oxa-4,7,11,12-tetraazahexadecan-14-yl)carbamate], the EC50 stood at 10.3 nM.
Take `CCC(=O)N[C@H](C(=O)N[C@@H](Cc1ccc(C#Cc2cnc(N3CC4CCC(C3)N4C3COC3)nc2)cc1)[C@@H](O)CN(Cc1c(F)cc(-c2ccn(C(F)F)n2)cc1F)NC(=O)[C@@H](NC(=O)CC)C(C)(C)C(F)(F)F)C(C)(C)C(F)(F)F` [Example 181, (2S)—N-((2S,3S)-4-(1-(4-(1-(difluoromethyl)-1H-pyrazol-3-yl)-2,6-difluorobenzyl)-2-((S)-4,4,4-trifluoro-3,3-dimethyl-2-propionamidobutanoyl)hydrazinyl)-3-hydroxy-1-(4-((2-(8-(oxetan-3-yl)-3,8-diazabicyclo[3.2.1]octan-3-yl)pyrimidin-5-yl)ethynyl)phenyl)butan-2-yl)-4,4,4-trifluoro-3,3-dimethyl-2-propionamidobutanamide]: the EC50 is 8.5 nM.
Consider `CC(=O)N[C@H](C(=O)N[C@@H](Cc1ccc(C#Cc2ccc(N3CC4CCC(C3)N4C3COC3)nc2)cc1)[C@@H](O)CN(Cc1c(F)cc(-c2ccn(C(F)F)n2)cc1F)NC(=O)[C@@H](NC(C)=O)C(C)(C)C(F)(F)F)C(C)(C)C(F)(F)F` [Example 182, (2S)-2-acetamido-N-((2S,3S)-4-(2-((S)-2-acetamido-4,4,4-trifluoro-3,3-dimethylbutanoyl)-1-(4-(1-(difluoromethyl)-1H-pyrazol-3-yl)-2,6-difluorobenzyl)hydrazinyl)-3-hydroxy-1-(4-((6-(8-(oxetan-3-yl)-3,8-diazabicyclo[3.2.1]octan-3-yl)pyridin-3-yl)ethynyl)phenyl)butan-2-yl)-4,4,4-trifluoro-3,3-dimethylbutanamide], for which the EC50 was 8.82 nM.
As to `COC(=O)N[C@H](C(=O)N[C@@H](Cc1ccc(C#Cc2ccc(N3CC4CCC(C3)N4C3COC3)nc2)cc1)[C@@H](O)CN(Cc1c(F)cc(-c2ccn(C(F)F)n2)cc1F)NC(=O)[C@@H](NC(=O)OC1CC1)C(C)(C)C)C(C)(C)C(F)(F)F` [Example 187, cyclopropyl ((5S,8S,9S,14S)-11-(4-(1-(difluoromethyl)-1H-pyrazol-3-yl)-2,6-difluorobenzyl)-9-hydroxy-15,15-dimethyl-8-(4-((6-(8-(oxetan-3-yl)-3,8-diazabicyclo[3.2.1]octan-3-yl)pyridin-3-yl)ethynyl)benzyl)-3,6,13-trioxo-5-(1,1,1-trifluoro-2-methylpropan-2-yl)-2-oxa-4,7,11,12-tetraazahexadecan-14-yl)carbamate], the 50% effective concentration (EC50) was found to be 4.7 nM.
For `COC(=O)N[C@H](C(=O)N[C@@H](Cc1ccc(-c2ccc(N3C[C@H]4C[C@@H]3CN4C3COC3)nc2)cc1)[C@@H](O)CN(Cc1c(F)cc(-c2ccn(CC(F)F)n2)cc1F)NC(=O)[C@@H](NC(=O)OC)C(C)(C)C(F)(F)F)C(C)(C)C(F)(F)F` [Example 188, methyl ((5S,8S,9S,14S)-11-(4-(1-(2,2-difluoroethyl)-1H-pyrazol-3-yl)-2,6-difluorobenzyl)-16,16,16-trifluoro-9-hydroxy-15,15-dimethyl-8-(4-(6-((1R,4R)-5-(oxetan-3-yl)-2,5-diazabicyclo[2.2.1]heptan-2-yl)pyridin-3-yl)benzyl)-3,6,13-trioxo-5-(1,1,1-trifluoro-2-methylpropan-2-yl)-2-oxa-4,7,11,12-tetraazahexadecan-14-yl)carbamate], the EC50 was found to be 9 nM.
